The values below are quoted from earlier work in patent US20260224647A1, “Microbial compositions for treating joint inflammation” (Katholieke Universiteit Leuven, priority 2023, published 2026).

The series concerns rheumatoid arthritis. The following applies: twice daily administration.

Turning to Lactobacillus rhamnosus GG, the “Activity of rheumatoid arthritis” value is “no statistically significant differences”.
